“Also recorded” adds a separate entry of the source.
How the values were obtained:
[1] = tested on: ES-2 cells; test: Cell growth suppression experiment; format: cell-based; conditions: for IC50: Homo sapiens, 48 h, cultured for 2 days, read-out: IC50 (cell growth suppression, ranking); for cell growth suppression effect (in words): compared with prexasertib
Experimental: ES-2 cells were obtained from the American Type Culture Collection (ATCC). These cells were cultured at 37° C. in the presence of 5% CO2 in a 10% fetal bovine serum, […] penicillin/streptomycin containing McCoy's 5a medium.
500 cells were seeded for each well in a 384-well plate, and the evaluated compound was added so that the final concentration of DMSO would be 0.1% to culture the cells for 2 days. After completion of the culture, the cell viability rate was calculated using CellTiter-Glo® 3D Reagent (Promega, G968B).

[2] = molecular target: hERG current (Homo sapiens (Human), UniProt Q12809); test: hERG current blocking test; conditions: for hERG/CHK1: IC50 of hERG divided by IC50 of CHK1 inhibition of Test Example 1; for IC50: read-out: hERG inhibition IC50, hERG stably expressing CHO cells, Qube384
Chain of hERG current (Q12809 whole entry): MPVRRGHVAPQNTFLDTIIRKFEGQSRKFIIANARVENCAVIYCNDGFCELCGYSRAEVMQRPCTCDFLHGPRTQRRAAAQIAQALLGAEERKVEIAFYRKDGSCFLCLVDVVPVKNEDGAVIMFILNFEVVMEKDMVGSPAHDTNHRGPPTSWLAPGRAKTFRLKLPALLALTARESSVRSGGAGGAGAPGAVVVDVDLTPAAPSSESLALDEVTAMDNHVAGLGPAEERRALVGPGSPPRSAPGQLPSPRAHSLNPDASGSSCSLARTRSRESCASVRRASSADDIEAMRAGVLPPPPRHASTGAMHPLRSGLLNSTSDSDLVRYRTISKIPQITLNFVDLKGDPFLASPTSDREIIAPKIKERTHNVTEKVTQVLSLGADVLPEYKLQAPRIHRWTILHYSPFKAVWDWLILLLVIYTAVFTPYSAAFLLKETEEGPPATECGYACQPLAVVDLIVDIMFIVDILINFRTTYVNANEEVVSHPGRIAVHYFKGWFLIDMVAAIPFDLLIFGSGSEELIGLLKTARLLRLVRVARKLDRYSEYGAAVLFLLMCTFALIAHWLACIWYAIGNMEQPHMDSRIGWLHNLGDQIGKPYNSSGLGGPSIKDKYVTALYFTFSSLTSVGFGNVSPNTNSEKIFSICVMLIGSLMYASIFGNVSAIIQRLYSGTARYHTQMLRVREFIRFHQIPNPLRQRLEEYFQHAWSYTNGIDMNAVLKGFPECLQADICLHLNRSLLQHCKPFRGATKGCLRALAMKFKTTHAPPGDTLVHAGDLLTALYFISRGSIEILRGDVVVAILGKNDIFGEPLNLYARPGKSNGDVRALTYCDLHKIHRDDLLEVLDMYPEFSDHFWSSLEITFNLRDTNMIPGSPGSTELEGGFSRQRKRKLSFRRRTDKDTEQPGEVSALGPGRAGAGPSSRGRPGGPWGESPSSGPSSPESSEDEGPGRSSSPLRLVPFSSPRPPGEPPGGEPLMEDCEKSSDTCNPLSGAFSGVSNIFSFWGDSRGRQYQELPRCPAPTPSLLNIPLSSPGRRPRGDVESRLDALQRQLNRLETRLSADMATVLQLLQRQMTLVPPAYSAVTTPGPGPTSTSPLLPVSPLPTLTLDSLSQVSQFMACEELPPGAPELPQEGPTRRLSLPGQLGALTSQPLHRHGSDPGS
Experimental: (§1) The test compounds were added to cultured hERG (human Ether-a-go-go Related Gene) gene stably expressing CHO cell line cells to achieve 0.27 to 100 μM.

[3] = molecular target: CHK1 (Homo sapiens (Human), UniProt O14757); test: CHK1 inhibitory activity test (IMAP TR-FRET); format: biochemical; conditions: for inhibition at 0.0001 µM: read-out: CHK1 inhibition % at 0.1 nM; for effect of suppressing CHK1 activity (in words): compared with prexasertib
Chain of CHK1 (O14757 whole entry): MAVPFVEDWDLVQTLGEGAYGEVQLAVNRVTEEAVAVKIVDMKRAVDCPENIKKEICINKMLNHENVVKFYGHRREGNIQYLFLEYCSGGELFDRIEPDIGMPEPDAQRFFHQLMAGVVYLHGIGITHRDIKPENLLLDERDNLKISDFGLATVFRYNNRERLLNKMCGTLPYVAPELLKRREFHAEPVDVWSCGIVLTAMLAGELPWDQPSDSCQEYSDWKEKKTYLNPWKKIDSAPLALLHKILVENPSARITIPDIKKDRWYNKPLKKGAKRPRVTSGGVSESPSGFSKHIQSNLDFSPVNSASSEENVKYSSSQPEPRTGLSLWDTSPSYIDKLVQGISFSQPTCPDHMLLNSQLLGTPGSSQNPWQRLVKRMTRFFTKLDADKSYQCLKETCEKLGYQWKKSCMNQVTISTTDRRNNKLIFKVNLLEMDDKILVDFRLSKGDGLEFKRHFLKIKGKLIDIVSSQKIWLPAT
Experimental: IMAP TR-FRET Screening Express Kit (R8160) was obtained from Molecular Devices. […] FAM-PKAtide (R7255, Molecular Devices) and FAM-Phospho-PKAtide (R7304, Molecular Devices) were admixed after dilution, and calibration standard systems for phosphorylation levels from 0 to 100% were created. 5 μL of a compound dissolved in a 0.4% DMSO solution was added to a 384 well plate. A compound study group to which 5 μL of each of CHK1, CHK1tide, and ATP was added, and a standard group to which 20 μL of standard was added were created, and subjected to a kinase reaction for 3 hours at 30° C. Subsequently, 60 μL of Binding Reagent (80% Buffer A, 20% Buffer B, 1:600 Binding Reagent, 1:400 Tb-Donor) was added for a binding reaction for 2 hours at room temperature.

[4] = molecular target: CYP3A4 (Homo sapiens (Human), UniProt P08684); test: CYP3A4 MBI and enzyme inactivation clearance evaluation; format: in vitro ADME; conditions: human liver microsome; for microsomal CLint: liver microsomes, probe midazolam or testosterone; for Factor of change in IC50 value: by pre-incubation with NADPH, MBI action when 2-fold or greater
Chain of CYP3A4 (P08684 whole entry): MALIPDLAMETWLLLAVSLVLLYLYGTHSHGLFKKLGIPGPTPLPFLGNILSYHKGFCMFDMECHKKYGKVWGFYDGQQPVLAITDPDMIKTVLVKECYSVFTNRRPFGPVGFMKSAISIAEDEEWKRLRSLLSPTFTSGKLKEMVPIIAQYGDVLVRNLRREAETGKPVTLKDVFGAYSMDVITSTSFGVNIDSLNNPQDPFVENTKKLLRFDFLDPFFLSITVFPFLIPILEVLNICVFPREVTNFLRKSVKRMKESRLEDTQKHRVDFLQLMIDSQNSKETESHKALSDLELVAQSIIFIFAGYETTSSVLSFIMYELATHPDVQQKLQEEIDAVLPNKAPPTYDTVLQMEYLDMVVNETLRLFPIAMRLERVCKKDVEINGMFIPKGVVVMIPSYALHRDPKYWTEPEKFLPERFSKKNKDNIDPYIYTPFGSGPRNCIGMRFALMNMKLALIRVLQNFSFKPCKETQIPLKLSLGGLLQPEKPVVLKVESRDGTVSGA
Experimental: The effect and mode of inhibition of the test compound on CYP3A4 were evaluated using a human liver microsome as an enzyme source and midazolam or testosterone as a substrate. […] The IC50 value was calculated from a concentration plot.

[5] = molecular target: hERG (Homo sapiens (Human), UniProt Q12809); test: in vitro; conditions: CHO cells stably expressing hERG
Chain of hERG (Q12809 whole entry): as the sequence (Q12809 whole entry) above
Experimental: as §1

[6] = tested on: neutrophil count; test: Measurement of neutrophil count using tumor-bearing mice transplanted with ES-2 cells (Test Example 17); format: in vivo; conditions: 30 mg/kg, 14 days, 2 times/week; 96 hours after final administration
Experimental: Blood was collected 96 hours after the final administration to measure the neutrophil count.
Ratio of residual neutrophils (%)=(neutrophil count of administration group 96 hours after administration)/(neutrophil count of control administration group 96 hours after administration)×100

SMILES | IC50 [1] | hERG/CHK1 [2] | IC50 [2] | inhibition at 0.0001 µM [3] | cell growth suppression effect (in words) [1] | effect of suppressing CHK1 activity (in words) [3] | microsomal CLint [4] | selectivity ratio [5] | IC50 [3] | Factor of change in IC50 value [4] | Ratio of residual neutrophils [6] | inhibition of CYP3A4 based on MBI (in words) [4]
COc1ccnc(OCCCN)c1-c1cc(Nc2cnc(C(F)(F)F)cn2)n[nH]1 [Example 16, N-{5-[2-(3-aminopropoxy)-4-methoxypyridin-3-yl]-1H-pyrazol-3-yl}-5-(trifluoromethyl)pyrazin-2-amine] | 0.3 to 1 µM | <888 | < 2.7 µM | < 5% | – | – | – | – | – | – | – | –
COc1cncc(OC[C@]2(F)CCNC2)c1-c1cc(Nc2cnc(C#N)cn2)n[nH]1 [Example 20, (S)-5-[(5-{3-[(3-fluoropyrrolidin-3-yl)methoxy]-5-methoxypyridin-4-yl}-1H-pyrazol-3-yl)amino]pyrazine-2-carbonitrile] | < 0.03 µM | 11176 | – | 6% | excellent cell growth suppression effect that is equivalent to that of prexasertib | more potent effect of suppressing CHK1 activity than prexasertib | 1.11 µL/min/mg | – | – | – | – | –
COc1nccc(OCC2(CO)CNC2)c1-c1cc(Nc2cnc(C#N)cn2)n[nH]1 [Example 8, 5-{[5-(4-{[3-(hydroxymethyl)azetidin-3-yl]methoxy}-2-methoxypyridin-3-yl)-1H-pyrazol-3-yl]amino}pyrazine-2-carbonitrile] | 0.03 to 0.1 µM | >1000000 | > 100 µM | 51% | – | more potent effect of suppressing CHK1 activity than prexasertib; also recorded: especially potently suppressing CHK1 activity | – | ≥ 100000 | < 0.0001 µM | Not Detected | – | –
Nc1ccn([C@@H]2O[C@H](CO)[C@@H](O)C2(F)F)c(=O)n1 [Gemcitabine] | – | – | – | – | – | – | – | – | – | – | 39% | –
COc1cncc(OC[C@@H](F)CN)c1-c1cc(Nc2cnc(C#N)cn2)n[nH]1 [Example 29, 5-[(5-{3-[(2S)-3-amino-2-fluoropropoxy]-5-methoxypyridin-4-yl}-1H-pyrazol-3-yl)amino]pyrazine-2-carbonitrile] | < 0.03 µM | 18667 | – | – | excellent cell growth suppression effect that is equivalent to that of prexasertib | – | 0.054 µL/min/mg | – | – | Not Detected | – | –
COc1ccnc(OCC2(CN)CC2)c1-c1cc(Nc2cnc(C#N)cn2)n[nH]1 [Example 37, 5-{[5-(2-{[1-(aminomethyl)cyclopropyl]methoxy}-4-methoxypyridin-3-yl)-1H-pyrazol-3-yl]amino}pyrazine-2-carbonitrile] | < 0.03 µM | <8438 | < 2.7 µM | 18% | excellent cell growth suppression effect that is equivalent to that of prexasertib | more potent effect of suppressing CHK1 activity than prexasertib | – | – | – | Not Detected | – | do not exhibit inhibition of CYP3A4 based on MBI
COc1cncc(OC[C@@]2(F)CCNC2)c1-c1cc(Nc2cnc(C#N)cn2)n[nH]1 [Example 22, (R)-5-[(5-{3-[(3-fluoropyrrolidin-3-yl)methoxy]-5-methoxypyridin-4-yl}-1H-pyrazol-3-yl)amino]pyrazine-2-carbonitrile] | < 0.03 µM | 12500 | – | 22% | excellent cell growth suppression effect that is equivalent to that of prexasertib | more potent effect of suppressing CHK1 activity than prexasertib | 0.349 µL/min/mg | – | – | – | – | –
COc1cncc(OC[C@H](F)CN)c1-c1cc(Nc2cnc(C#N)cn2)n[nH]1 [Example 30, 5-[(5-{3-[(2R)-3-amino-2-fluoropropoxy]-5-methoxypyridin-4-yl}-1H-pyrazol-3-yl)amino]pyrazine-2-carbonitrile] | < 0.03 µM | 40000 | – | 28% | excellent cell growth suppression effect that is equivalent to that of prexasertib | more potent effect of suppressing CHK1 activity than prexasertib | – | – | – | Not Detected | – | –
COc1cncc(OC[C@H]2CNCCO2)c1-c1cc(Nc2cnc(C#N)cn2)n[nH]1 (stereo in doubt) [Example 13, 5-[(5-{3-methoxy-5-[(morpholin-2-yl)methoxy]pyridin-4-yl}-1H-pyrazol-3-yl)amino]pyrazine-2-carbonitrile] | 0.3 to 1 µM | <3649 | < 2.7 µM | 6% | – | – | 0.484 µL/min/mg | – | – | – | – | –
COc1cncc(OC[C@@H]2CNCCO2)c1-c1cc(Nc2cnc(C#N)cn2)n[nH]1 (stereo in doubt) [Example 12, 5-[(5-{3-methoxy-5-[(morpholin-2-yl)methoxy]pyridin-4-yl}-1H-pyrazol-3-yl)amino]pyrazine-2-carbonitrile] | 0.1 to 0.3 µM | 9118 | – | 21% | – | more potent effect of suppressing CHK1 activity than prexasertib | 0.287 µL/min/mg | – | – | – | – | –
COc1cncc(O[C@H](C)C2(O)CNC2)c1-c1cc(Nc2cnc(C#N)cn2)n[nH]1 [Example 34, 5-[(5-{3-[(1R)-1-(3-hydroxyazetidin-3-yl)ethoxy]-5-methoxypyridin-4-yl}-1H-pyrazol-3-yl)amino]pyrazine-2-carbonitrile] | > 1 µM | – | – | < 5% | – | – | – | – | – | – | – | –
COc1nccc(OCC2(CN)CC2)c1-c1cc(Nc2cnc(C#N)cn2)n[nH]1 [Example 38, 5-{[5-(4-{[1-(aminomethyl)cyclopropyl]methoxy}-2-methoxypyridin-3-yl)-1H-pyrazol-3-yl]amino}pyrazine-2-carbonitrile] | < 0.03 µM | – | – | < 5% | excellent cell growth suppression effect that is equivalent to that of prexasertib | – | – | – | – | – | – | –
COc1nccc(OCC2(C)CNC2)c1-c1cc(Nc2cnc(C#N)cn2)n[nH]1 [Example 6, 5-[(5-{2-methoxy-4-[(3-methylazetidin-3-yl)methoxy]pyridin-3-yl}-1H-pyrazol-3-yl)amino]pyrazine-2-carbonitrile] | < 0.03 µM | – | – | 15% | excellent cell growth suppression effect that is equivalent to that of prexasertib | more potent effect of suppressing CHK1 activity than prexasertib | – | – | – | – | – | –
COc1cncc(OCC2(CN)CC2)c1-c1cc(Nc2cnc(C#N)cn2)n[nH]1 [Example 11, 5-{[5-(3-{[1-(aminomethyl)cyclopropyl]methoxy}-5-methoxypyridin-4-yl)-1H-pyrazol-3-yl]amino}pyrazine-2-carbonitrile] | < 0.03 µM | – | – | 35% | excellent cell growth suppression effect that is equivalent to that of prexasertib | more potent effect of suppressing CHK1 activity than prexasertib | – | – | – | – | – | –
COc1cncc(OCC[C@@H](C)N)c1-c1cc(Nc2cnc(C#N)cn2)n[nH]1 [Example 9, 5-[(5-{3-[(3R)-3-aminobutoxy]-5-methoxypyridin-4-yl}-1H-pyrazol-3-yl)amino]pyrazine-2-carbonitrile] | 0.03 to 0.1 µM | – | – | 24% | – | more potent effect of suppressing CHK1 activity than prexasertib | – | – | – | – | – | –
COc1cncc(OC[C@H]2CCNC2)c1-c1cc(Nc2cnc(C#N)cn2)n[nH]1 [Example 21, (S)-5-[(5-{3-methoxy-[5-(pyrrolidin-3-yl)methoxy]pyridin-4-yl}-1H-pyrazol-3-yl)amino]pyrazine-2-carbonitrile] | < 0.03 µM | – | – | 15% | excellent cell growth suppression effect that is equivalent to that of prexasertib | more potent effect of suppressing CHK1 activity than prexasertib | – | – | – | – | – | –

Reference: patent publication US11564920B2, “5-heteroaryl-1H-pyrazol-3-amine derivative” (Sumitomo Pharma Co., Ltd., priority 2020, dated 2023)
